# Patent publication US8642297B2, “Production of L-ribose and other rare sugars” (ZuChem, Inc., priority 2005, dated 2014)
# How the values were obtained:
# Native MDH = target: T1, Native MDH (Apium graveolens, UniProt Q38707); conditions: cited from earlier work; for Relative reaction rate, Native MDH: relative to D-mannitol = 100%, natively expressed MDH
# T1 construct: compared with the published data on the natively expressed MDH; host or cells: celery (Apium graveolens)
# T1 sequence (Q38707 1-365): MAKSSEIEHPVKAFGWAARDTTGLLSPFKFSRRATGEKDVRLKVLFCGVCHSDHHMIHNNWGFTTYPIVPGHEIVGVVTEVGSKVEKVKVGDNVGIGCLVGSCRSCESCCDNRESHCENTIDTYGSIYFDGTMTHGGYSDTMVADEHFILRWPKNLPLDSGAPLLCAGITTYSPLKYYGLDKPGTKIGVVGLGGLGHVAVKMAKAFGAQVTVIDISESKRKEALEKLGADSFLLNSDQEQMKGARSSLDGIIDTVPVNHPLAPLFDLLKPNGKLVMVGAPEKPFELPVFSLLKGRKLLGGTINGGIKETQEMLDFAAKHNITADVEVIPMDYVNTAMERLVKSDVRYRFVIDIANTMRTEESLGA
# Recombinant MDH = target: T2, Recombinant MDH (Apium graveolens, UniProt Q38707, C47S/T120I); assay: Relative reaction rates of substrates with recombinantly expressed MDH (NADH formation measured spectrophotometrically); assay type: biochemical; conditions: relative to D-mannitol = 100%; MDH expressed in E. coli
# T2 construct: made in house; host or cells: E. coli BL21 (pTTQ18 plasmid, tac promoter)
# T2 sequence (Q38707 whole entry C47S/T120I): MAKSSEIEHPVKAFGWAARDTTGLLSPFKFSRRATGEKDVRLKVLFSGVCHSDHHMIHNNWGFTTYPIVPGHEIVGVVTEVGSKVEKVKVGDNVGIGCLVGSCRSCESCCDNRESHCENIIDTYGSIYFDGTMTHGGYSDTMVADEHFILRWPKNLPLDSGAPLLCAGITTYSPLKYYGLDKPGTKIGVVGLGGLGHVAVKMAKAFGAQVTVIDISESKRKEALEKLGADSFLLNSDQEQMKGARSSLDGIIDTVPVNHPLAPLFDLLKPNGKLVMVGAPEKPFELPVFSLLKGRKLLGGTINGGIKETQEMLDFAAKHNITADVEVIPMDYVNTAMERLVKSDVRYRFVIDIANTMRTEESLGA
# Protocol: (§1) Many different variables were studied to maximize the expression and activity of MDH. MDH activity was monitored with the conversion of D-mannitol to D-mannose in the presence of NAD. The conversion was monitored spectrophotometrically by measuring the increasing concentration of NADH, the cofactor product of the oxidation of mannitol to mannose. For a given experiment, lysate protein concentrations were normalized.
# Substrate specificity of the recombinant MDH was also tested and compared with the published data on the natively expressed MDH. Recombinant expression of MDH in E. coli could cause subtle modifications to the tertiary structure of MDH and modify the substrate specificity. Several known substrates of the MDH were tested.[16]
# The reaction rate of L-fucitol for recombinant MDH was tested. […] The fucitol was not originally characterized in the previous literature on MDH.[38]
# [1] = assay type: biochemical, Apium graveolens
# Protocol: as §1
# The pH profile for MDH for the oxidation reactions was also tested. […] This range could be beneficial for in vitro bioconversions with enzymatic NAD cofactor recycling methods. Increasing the activity of MDH at neutral pH could improve in vivo fermentation activity as the interior of the E. coli cell has a pH lower than 9.0.[21]
# The recombinant MDH was tested for activity at various temperatures. Lysates containing expressed MDH were incubated with D-mannitol and NAD at pH 9.0. Activity was measured by measuring the increased NADH concentration spectrophotometrically at A340nm. […] See, FIG. 12.
# The thermostability of recombinant MDH was also tested. Lysates containing MDH were incubated at various temperatures. Aliquots of MDH were removed at various times to measure MDH activity using the assay described above. See, FIG. 13.
# [2] = target: T3, Apium gravelons mannitol-1-dehydrogenase (MDH) (Apium graveolens, UniProt Q38707, C47S/T120I); assay: MDH activity in lysate with added divalent metal salts, D-mannitol and NAD at pH 9.0; assay type: biochemical
# T3 construct: made in house; host or cells: E. coli BL21 (pTTQ18 plasmid, tac promoter)
# T3 sequence (Q38707 whole entry C47S/T120I): as above
# Protocol: While not explicitly described in the literature, Apium gravelons mannitol-1-dehydrogenase (MDH) requires divalent metal ions, particularly Zn^2+ ions, for activity. The presence of ZnSO4 increases MDH activity. Cells expressing MDH were grown in rich media were harvested and lysed with BUGBUSTER® protein extraction reagent, Novagen, Madison, Wis. MDH activity was then tested with increasing concentrations of ZnSO4 in the presence of D-mannitol and NAD cofactor at pH 9.0. See, FIG. 1.
Molecule,"Relative reaction rate, Native MDH (Native MDH)","Relative reaction rate, Recombinant MDH (Recombinant MDH)",other results
OC[C@@H](O)[C@@H](O)[C@H](O)[C@@H](O)CO [D-Sorbitol],22%,5%,
OC[C@@H](O)[C@H](O)[C@@H](O)CO [Xylitol],0%,1%,Conversion of xylitol to L-xylose by wild-type MDH (Native MDH; wild-type MDH): does not convert
OC[C@@H](O)C(O)[C@H](O)CO [D-Arabitol],37%,33%,
OC[C@@H](O)[C@@H](O)CO [Erythritol],16%,4%,
"MDH: NAD-dependent mannitol-1-dehydrogenase from Apium graveolens, recombinantly expressed in E. coli",,,"Thermostability (loss of activity on incubation) [1]: Most MDH activity was lost; Residual activity at pH 7.0 ([1]; pH 7.0, relative to maximum at pH 9.0): 10%"
OC[C@@H](O)[C@@H](O)[C@@H](O)CO [Ribitol],36%,50%,
OC[C@@H](O)[C@@H](O)[C@H](O)[C@H](O)CO [D-Mannitol],100%,100%,
O=S(=O)([O-])[O-].[Ni+2] [NiSO4],,,Inhibition of MDH activity ([2]; 0.1 mM NiSO4 compared to MDH without NiSO4 added): approximately 50%
"O=S(=O)([O-])[O-].[Zn+2] [Zn^2+, ZnSO4]",,,Increase of MDH activity ([2]; 1 μM Zn^2+ ions compared to no added zinc): 50%; Effect on MDH activity at concentrations above 1 μM ([2]; concentrations above 1 μM): inhibition
C[C@H](O)[C@@H](O)[C@@H](O)[C@H](O)CO [L-fucitol],,10.5%,
